Laboratory results from patent US20120214862A1, “MODULATION OF FACTOR 7 EXPRESSION” (ISIS Pharmaceuticals, Inc., priority 2009, published 2012).
In the oligonucleotide strings, read from the 5' end, every base follows the letter of its sugar. An asterisk marks phosphorothioate; unmarked linkages are phosphodiester. Other units and linkages are bracketed, terminal groups are in braces. A string of capitals states the bases alone. e = 2'-O-(2-methoxyethyl) (MOE); [5mC] = 5-methylcytosine; d = 2'-deoxy (DNA)

Tests used:
[1] = tested on: human Factor 7 mRNA; test: Antisense inhibition of human Factor 7 mRNA in HepB3 cells, lipofectin, 50 nM, real-time RT-PCR; type: cell-based; settings: HepB3 cells; for % Inhibition (human Factor 7 mRNA): Example 1, 50 nM, ~24 h, relative to untreated control cells
Summary of the method: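 Percent inhibition of Factor 7 mRNA, relative to untreated control, comes from real-time RT-PCR with RIBOGREEN normalization, using primer probe set RTS 2927 in some runs. RNA was taken roughly 24 h after lipofectin delivery of 50 nM oligonucleotide into HepB3 cells.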

[2] = tested on: human Factor 7 mRNA; test: Dose-dependent antisense inhibition of human Factor 7 in HepB3 cells, transfection with electroporation; type: cell-based
Summary of the method: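 HepB3 cells, 20,000/well, electroporated with gapmers at 3.125–100 μM; about 16 h treatment. Factor 7 mRNA by qRT-PCR with primer probe set RTS 2927, normalized to RIBOGREEN total RNA; percent inhibition versus untreated cells.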

[3] = lipofectin, 50 nM antisense oligonucleotide, approximately 24 hours, primer probe set RTS 2927, relative to untreated control
[4] = 3.125 μM, 16 hours (Example 7, Table 15)
[5] = 3.125 μM, 16 hours (Example 8, Table 16)
[6] = 6.25 μM, 16 hours (Example 7, Table 15)
[7] = 6.25 μM, 16 hours (Example 8, Table 16)
[8] = 12.5 μM, 16 hours (Example 7, Table 15)
[9] = 12.5 μM, 16 hours (Example 8, Table 16)
[10] = 25 μM, 16 hours (Example 7, Table 15)
[11] = 25 μM, 16 hours (Example 8, Table 16)
[12] = 50 μM, 16 hours (Example 7, Table 15)
[13] = 50 μM, 16 hours (Example 8, Table 16)
[14] = 100 μM, 16 hours (Example 7, Table 15)
[15] = 100 μM, 16 hours (Example 8, Table 16)

Substance	% Inhibition (human Factor 7 mRNA) ([1]; lipofectin) [%]	% Inhibition of human Factor 7 mRNA levels [1, 3] [%]	percent inhibition of Factor 7 mRNA, relative to untreated control cells [2, 4] [%]	percent inhibition of Factor 7 mRNA, relative to untreated control cells [2, 5] [%]	percent inhibition of Factor 7 mRNA, relative to untreated control cells [2, 6] [%]	percent inhibition of Factor 7 mRNA, relative to untreated control cells [2, 7] [%]	percent inhibition of Factor 7 mRNA, relative to untreated control cells [2, 8] [%]	percent inhibition of Factor 7 mRNA, relative to untreated control cells [2, 9] [%]	percent inhibition of Factor 7 mRNA, relative to untreated control cells [2, 10] [%]	percent inhibition of Factor 7 mRNA, relative to untreated control cells [2, 11] [%]	percent inhibition of Factor 7 mRNA, relative to untreated control cells [2, 12] [%]	percent inhibition of Factor 7 mRNA, relative to untreated control cells [2, 13] [%]	percent inhibition of Factor 7 mRNA, relative to untreated control cells [2, 14] [%]	percent inhibition of Factor 7 mRNA, relative to untreated control cells [2, 15] [%]	% Inhibition of human Factor 7 mRNA levels ([1]; gapmers targeted to nucleobases 15188 to 15211 of SEQ ID NO: 1 (Table 13)) [%]
407939 (antisense eT*eG*e[5mC]*eA*eG*d[5mC]*d[5mC]*d[5mC]*dG*dG*d[5mC]*dA*d[5mC]*d[5mC]*d[5mC]*eA*eG*e[5mC]*eG*eA) [compound 407939]	93	76	18	35	28	60	42	60	56	73	68	81	82	83	–
407935 (antisense eA*eT*eG*e[5mC]*eA*dT*dG*dG*dT*dG*dA*dT*dG*d[5mC]*dT*eT*e[5mC]*eT*eG*eA) [compound 407935]	94	72	37	63	47	79	67	84	73	90	80	90	87	91	79
